Literature values in patent publication US8030014B2, “Detecting agent and therapeutic agent for highly malignant breast cancer” (priority 2005, dated 2011).

Test system: breast cancer
Settings: paclitaxel used in addition to adriamycin plus cyclophosphamide (AC); postoperative auxiliary chemotherapy

In the case of CC(=O)O[C@H]1C(=O)[C@@]2(C)[C@H]([C@H](OC(=O)c3ccccc3)[C@]3(O)C[C@H](OC(=O)[C@H](O)[C@@H](NC(=O)c4ccccc4)c4ccccc4)C(C)=C1C3(C)C)[C@]1(OC(C)=O)CO[C@@H]1C[C@@H]2O [paclitaxel], the “lowering of annual mortality rate over AC therapy alone” value is listed as 26%.
